In ChEMBL document CHEMBL2390945, “Synthesis and characterization of 123I-CMICE-013: a potential SPECT myocardial perfusion imaging agent” (Bioorg Med Chem, 2013) one finds tissue uptake and Drug uptake data, which are given here for two compounds.

Type in all cases: ADME, organism-based
Series [1] in a line: Biodistribution in rat liver at 15 mins. The note with it: read-out: Drug uptake.
Series [2] is described as follows: Biodistribution in rat liver at 60 mins. The note with it: read-out: Drug uptake.
In series [3] the test system is Liver. Put plainly: Biodistribution in rat liver at 15 uci, iv measured at 60 mins. To be noted: in vivo, 1 h.
In series [4] the test system is Liver. Put plainly: Biodistribution in rat liver at 15 uci, iv measured at 15 mins. To be noted: in vivo, 0.25 h.

As for `CC(C)(C)n1ncc(OCc2ccc(CCCC[18F])cc2)c(Cl)c1=O`, in series [1], the tissue uptake at 0.25 h came out at 1.6 %ID/g. In addition, the tissue uptake at 1 h in series [2] was determined as 1.3 %ID/g.

Turning to `CC(C)(C)n1ncc(OCc2ccc(COCCF)cc2)c(Cl)c1=O` [FLURPIRIDAZ], the Drug uptake with Liver [3] is reported as 0.9 % ID/g; with Liver [4], 1.4 % ID/g.
